Where “and” joins values, the source holds several entries; their conditions need not be identical. Identical values can stand only once. Like-named read-outs stand apart in the source and are kept apart here.
How the values were obtained:
OR1A1 [1] = molecular target: T1, OR1A1 (Homo sapiens, UniProt Q9P1Q5); test: Dual-Glo luciferase reporter gene assay, OR1A1 in Hana3A cells; type: cell-based; parameters: The open reading frames of ORs were amplified using Phusion polymerase; Rho-tag (first 20 amino acids of human rhodopsin) (N); expressed in transfected cells; host or cells: Hana3A cells (derived from HEK293T), pCI vector; co-transfected with human RTP1S, M3 receptor, CRE-Luc and SV40-RL; conditions: for activation of OR1A1 in dose-responses: Figure 4A; for Bottom / normilazed value = (L-400/R-400) / Top / EC50 / LogEC50: OR1A1; for Bottom / Top: log(agonist) vs. response (three parameters), normalized (L-400/R-400); for normilazed value = (L-400/R-400) / LogEC50: log[molecule]; for normilazed value = (L-400/R-400): three replicates; for LogEC50: M
T1 sequence (Q9P1Q5 1-309): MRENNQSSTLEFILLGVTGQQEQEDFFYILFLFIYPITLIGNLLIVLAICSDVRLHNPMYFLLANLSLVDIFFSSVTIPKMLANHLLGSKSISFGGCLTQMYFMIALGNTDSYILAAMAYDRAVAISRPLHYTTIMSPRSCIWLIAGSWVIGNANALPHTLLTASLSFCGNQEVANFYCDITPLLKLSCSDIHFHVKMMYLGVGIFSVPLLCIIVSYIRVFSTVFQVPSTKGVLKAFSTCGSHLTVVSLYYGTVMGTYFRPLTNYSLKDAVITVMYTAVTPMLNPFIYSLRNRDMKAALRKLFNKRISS
Description: Hana3A cells were maintained in minimal essential medium containing 10% FBS (vol/vol) with penicillin-streptomycin and amphotericin B (1/200 each vol/vol) at 37 °C and 5% CO2. Hana3A cells are derived from HEK293T [57] and are optimized for OR studies as shown in several studies, compared to earlier OR expression in Sf9 insect cells in Gat et al., and in Xenopus oocytes, COS-7, PC12h and CHO-K1 cells in Katada et al..
The Dual-Glo luciferase assay system (Promega, Madison, WI, USA) was used to evaluate the functionality of wild-type OR1A1 and OR2W1 in an in vitro system. The open reading frames of ORs were amplified using Phusion polymerase (Thermo Fisher Scientific, Waltham, MA, USA). Amplified fragments were cloned into pCI expression vector (Promega, Madison, WI, USA) containing the sequence encoding the first 20 amino acids of human rhodopsin (Rho-tag) at N-terminal. Hana3A cells have been cultured and plated the day before transfection with 6 mL at 1/10 of a 100% confluence 100 mm plate into 96-well plates coated with poly D-lysine. After overnight incubation, the required genes were transfected using, for each plate, 5 ng SV40-RL, 10 ng CRE-Luc, 5 ng human RTP1S [72], 2.5 ng M3 receptor [73] and 5 ng of receptor (OR1A1, OR2W1 or empty vector Rho-pCI) plasmid. After around 18 h of transfection, cells were stimulated during 3.5 h by 25 µL of odorant diluted in CD293 + 1% glutamine + 30 µM CuCl2. Odorants were obtained from Sigma Aldrich (St. Louis, MO, USA) and diluted at 1 M concentration in DMSO as stock solutions. […] The luminescence of Firefly (Luc) and Renilla (Rluc) luciferase, were then sequentially monitored by injecting the corresponding substrate following the supplier’s protocol. The activity in each well was normalized as (Luc-400)/(Rluc-400). The response of the receptor was also normalized to its basal activity as (NLX/NL0)-1 where NL0 is the normalized luminescence value at 0 µM of odorant and NLX the value at X µM. […] Raw results were first analyzed with Excel (Microsoft Corporation, Albuquerque, NM, USA) and dose response curves, max efficacy and EC50 have been determined with GraphPrism 6 software (GraphPad Software, La Jolla, CA, USA). Areas under the curves (AUC) were calculated in Excel by summing all the OR responses at different concentrations for each odorant.

OR1A1 [2] = molecular target: T1, OR1A1; conditions: cited from earlier work
OR2W1 = molecular target: T2, OR2W1 (Homo sapiens, UniProt Q9Y3N9); conditions: cited from earlier work
T2 sequence (Q9Y3N9 1-320): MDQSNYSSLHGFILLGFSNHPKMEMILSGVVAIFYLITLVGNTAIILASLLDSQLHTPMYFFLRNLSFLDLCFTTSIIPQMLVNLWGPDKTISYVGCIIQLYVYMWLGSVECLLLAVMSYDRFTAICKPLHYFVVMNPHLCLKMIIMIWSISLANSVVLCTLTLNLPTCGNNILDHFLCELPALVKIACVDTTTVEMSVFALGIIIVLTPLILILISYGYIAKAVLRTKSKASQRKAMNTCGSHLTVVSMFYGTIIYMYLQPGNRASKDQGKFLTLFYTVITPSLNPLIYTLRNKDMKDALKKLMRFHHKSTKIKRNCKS

[3] = three-parameter fit, 95% CI (profile likelihood)
[4] = Table S1, ref Supplement references [1]-[9] as printed after each odorant name
[5] = Table S2, ref Supplement references [2]-[12] as printed after each odorant name

Molecule	activation of OR1A1 in dose-responses (OR1A1 [1])	Bottom (OR1A1 [1]; 95% CI (profile likelihood))	normilazed value = (L-400/R-400) (OR1A1 [1]; M = -3.5)	normilazed value = (L-400/R-400) (OR1A1 [1]; M = -3.75)	normilazed value = (L-400/R-400) (OR1A1 [1]; M = -4)	normilazed value = (L-400/R-400) (OR1A1 [1]; M = -4.25)	normilazed value = (L-400/R-400) (OR1A1 [1]; M = -4.5)	normilazed value = (L-400/R-400) (OR1A1 [1]; M = -4.75)	normilazed value = (L-400/R-400) (OR1A1 [1]; M = -5)	normilazed value = (L-400/R-400) (OR1A1 [1]; M = -5.25)	normilazed value = (L-400/R-400) (OR1A1 [1]; M = -5.5)	normilazed value = (L-400/R-400) (OR1A1 [1]; M = -5.75)	normilazed value = (L-400/R-400) (OR1A1 [1]; M = -6)	Top (OR1A1 [1]; 95% CI (profile likelihood))	EC50 (OR1A1 [1]; [3]) [µM]	LogEC50 (OR1A1 [1]; [3])	Class (agonist / non-agonist / conflicting info.) for OR1A1 (OR1A1 [2]; [4])	Class (agonist / non-agonist / antagonist / conflicting info.) for OR2W1 (OR2W1; [5])	other results
c1cnc2c(c1)ccc1cccnc12 [1,10-Phenanthroline]	did not activate OR1A1	1.108 to 2.224	-5 and -0.03226 and 0.3636	0.5532 and 0.08791 and 0.1429	-3.909 and 0.2121 and 0.03846	1.0814 and 2.077 and 1.521	1.468 and 1.358 and 1.008	0.8876 and 1.015 and 1.576	1.356 and 1.5085 and 1.392	1.691 and 1.671 and 2.1214	1.201 and 1.5718 and 1.847	1.3268 and 1.745 and 1.5675	1.452 and 1.389 and 1.692						
C=C(C)[C@H]1CC=C(C)CC1 [Dipentene]	weak activator	0.9206 to 2.078	15.0728 and 8.79 and 8.6943	10.4582 and 8.9424 and 9.316	8.181 and 7.514 and 8.062	7.841 and 5.647 and 6.278	5.494 and 4.914 and 4.401	3.7707 and 3.641 and 3.368	2.7632 and 2.301 and 2.9635	2.721 and 2.59 and 2.766	2.326 and 2.0399 and 1.767	1.87 and 1.732 and 1.479	1.6 and 1.531 and 1.2039	11.22 to 15.68	44.9 to 133	-4.348 to -3.874			
CCOC(=O)Cc1cccc(Br)c1 [Ethyl 2-(3-bromophenyl)acetate]	able to activate OR1A1	0.4401 to 2.007	9.12 and 11.0639 and 10.393	11.9065 and 11.6251 and 11.7476	13.3839 and 12.372 and 11.9409	8.912 and 11.2901 and 12.3912	7.943 and 8.382 and 10.0109	5.611 and 6.9779 and 6.123	5.045 and 5.149 and 4.806	3.622 and 3.689 and 4.46	2.564 and 3.159 and 3.452	2.1766 and 2.696 and 2.931	1.855 and 2.338 and 2.234	11.66 to 13.55	11.5 to 24.4	-4.940 to -4.613			EC50 (OR1A1 [1]; 95% CI): 11.5 to 24.4 µM
COC(=O)Cc1ccccc1C [Methyl 2-(2-methylphenyl)acetate]	able to activate OR1A1	0.03511 to 1.535	10.0524 and 12.0337 and 11.3132	12.5278 and 11.5014 and 12.1842	10.2366 and 11.6676 and 13.2311	7.699 and 8.952 and 12.582	7.699 and 8.491 and 8.724	5.333 and 7.756 and 8.263	4.586 and 4.422 and 5.725	3.435 and 3.266 and 4.088	2.183 and 2.432 and 2.624	1.457 and 1.905 and 2.354	1.1663 and 1.179 and 1.777	11.79 to 13.66	12.2 to 25	-4.914 to -4.603			EC50 (OR1A1 [1]; 95% CI): 12.2 to 25 µM
Caramel furanone																	Non-agonist	Non-agonist	
Coffee difuran																	Conflicting info.	Agonist	
Ethyl 3-methylthiopropionate																	Non-agonist	Non-agonist	
Isoeugenol																			Class (agonist / non-agonist / conflicting info.) for OR1A1 (OR1A1 [2]): Non-agonist; Class (agonist / non-agonist / antagonist / conflicting info.) for OR2W1 (OR2W1): Non-agonist
Laevo-arabinose																	Conflicting info.	Non-agonist	

From paper PMC8583936, “Machine Learning Assisted Approach for Finding Novel High Activity Agonists of Human Ectopic Olfactory Receptors” (International Journal of Molecular Sciences, 2021)
